Results taken from ChEMBL document CHEMBL4265952, “One-pot, multi-component synthesis and structure-activity relationships of peptoid-based histone deacetylase (HDAC) inhibitors targeting malaria parasites” (Eur J Med Chem, 2018).

Key:
Histone deacetylase 1 = Histone deacetylase 1 (Homo sapiens, UniProt Q13547); assay: Inhibition of recombinant full length human C-terminal His/FLAG tagged HDAC1 expressed in baculovirus infected Sf9 insect cells using ZMAL as substrate measured after 90 mins by fluorescence assay
[1] = target: T1, Protein deacetylase HDAC6 (Homo sapiens, UniProt Q9UBN7); assay: Inhibition of recombinant full length human N-terminal GST-tagged HDAC6 expressed in baculovirus infected Sf9 insect cells using ZMAL as substrate measured after 90 mins by fluorescence assay
T1 sequence (Q9UBN7 whole entry): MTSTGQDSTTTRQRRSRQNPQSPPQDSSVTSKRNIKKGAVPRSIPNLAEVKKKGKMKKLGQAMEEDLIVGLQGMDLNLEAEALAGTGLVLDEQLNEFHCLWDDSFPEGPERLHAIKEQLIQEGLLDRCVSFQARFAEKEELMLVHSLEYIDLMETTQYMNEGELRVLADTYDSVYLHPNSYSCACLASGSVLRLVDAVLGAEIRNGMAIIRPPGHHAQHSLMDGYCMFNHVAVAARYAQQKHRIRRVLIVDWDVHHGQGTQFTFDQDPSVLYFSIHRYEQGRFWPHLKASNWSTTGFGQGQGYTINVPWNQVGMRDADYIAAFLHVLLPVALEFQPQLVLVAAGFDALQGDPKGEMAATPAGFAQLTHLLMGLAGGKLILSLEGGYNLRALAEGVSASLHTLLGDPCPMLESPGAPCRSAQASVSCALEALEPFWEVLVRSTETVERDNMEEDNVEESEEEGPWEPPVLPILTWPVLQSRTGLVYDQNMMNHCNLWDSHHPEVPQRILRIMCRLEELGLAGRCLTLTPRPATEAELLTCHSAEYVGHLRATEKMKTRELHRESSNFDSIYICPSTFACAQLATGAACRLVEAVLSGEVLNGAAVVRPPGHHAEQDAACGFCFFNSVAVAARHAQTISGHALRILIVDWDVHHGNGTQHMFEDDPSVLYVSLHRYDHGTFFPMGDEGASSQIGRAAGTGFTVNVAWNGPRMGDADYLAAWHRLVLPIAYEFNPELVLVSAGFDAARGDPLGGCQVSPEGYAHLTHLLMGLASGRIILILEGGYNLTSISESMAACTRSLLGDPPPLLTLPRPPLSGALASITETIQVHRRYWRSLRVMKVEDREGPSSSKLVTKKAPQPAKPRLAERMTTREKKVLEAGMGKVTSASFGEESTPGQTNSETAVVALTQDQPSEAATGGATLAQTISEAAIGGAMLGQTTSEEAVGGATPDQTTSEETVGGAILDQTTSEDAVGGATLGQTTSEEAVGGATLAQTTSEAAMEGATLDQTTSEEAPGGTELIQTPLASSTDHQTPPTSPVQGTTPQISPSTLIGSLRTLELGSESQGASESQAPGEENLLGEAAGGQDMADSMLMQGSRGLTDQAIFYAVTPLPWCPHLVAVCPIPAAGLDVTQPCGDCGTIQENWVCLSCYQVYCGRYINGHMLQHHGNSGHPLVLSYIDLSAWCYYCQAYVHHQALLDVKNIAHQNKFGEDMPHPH

Plasmodium falciparum [2] = assay: Antiplasmodial activity against Plasmodium falciparum
NFF [3] = assay: cells; settings: Homo sapiens
Description: Cytotoxicity against human NFF cells

in vitro [4] = settings: human
Description: Selectivity index, ratio of IC50 for human NFF cells to IC50 for drug-sensitive asexual ring stage Plasmodium falciparum 3D7 infected in human erythrocytes

in vitro [5] = settings: human; remark: listed apart in the source
Description: Selectivity index, ratio of IC50 for human NFF cells to IC50 for multidrug-resistant asexual ring stage Plasmodium falciparum Dd2 infected in human erythrocytes

Plasmodium falciparum [6] = assay: microbe, parasite or virus in culture; settings: 3D7, 3 h
Description: Antiplasmodial activity against drug-sensitive asexual ring stage Plasmodium falciparum 3D7 infected in human erythrocytes by [3H]-hypoxanthine incorporation assay

Plasmodium falciparum [7] = assay: microbe, parasite or virus in culture; settings: Dd2, 3 h
Description: Antiplasmodial activity against multidrug-resistant asexual ring stage Plasmodium falciparum Dd2 infected in human erythrocytes by [3H]-hypoxanthine incorporation assay

Plasmodium falciparum [8] = assay: Gametocytocidal activity against synchronized Plasmodium falciparum NF54 mature stage 5 gametocytes after 48 hrs by ATP bioluminescence assay; format: functional, organism-based; settings: NF54, 48 h
Plasmodium falciparum [9] = assay: Gametocytocidal activity against transgenic GFP-fused Plasmodium falciparum NF54 early stage gametocytes after 72 hrs by Mitotracker Red CMH2XRos staining based imaging method; format: functional, organism-based; settings: NF54, 72 h
Plasmodium falciparum [10] = assay: Gametocytocidal activity against transgenic GFP-fused Plasmodium falciparum NF54 late stage gametocytes after 72 hrs by Mitotracker Red CMH2XRos staining based imaging method; format: functional, organism-based; settings: NF54, 72 h
[11] = Cytotoxicity against human HepG2A16 cells expressing GFP-fused CD81 after 48 hrs by bioluminescence assay; settings: HepG2A16, 48 h
Plasmodium berghei = assay: Antiplasmodial activity against exo-erythrocytic stage of GFP-Luc-fused Plasmodium berghei ANKA infected in human HepG2 cells after 48 hrs by bioluminescence assay; settings: HepG2, 48 h
[12] = Selectivity index, ratio of IC50 for human HepG2A16 cells to IC50 for exo-erythrocytic stage of GFP-Luc-fused Plasmodium berghei ANKA infected in human HepG2 cells
Plasmodium falciparum [13] = assay: Gametocytocidal activity against transgenic GFP-fused Plasmodium falciparum NF54 late stage gametocytes at 40 uM after 72 hrs by Mitotracker Red CMH2XRos staining based imaging method relative to control; format: functional
Plasmodium falciparum [14] = format: functional, organism-based; settings: 3D7
Plasmodium falciparum [15] = format: functional, organism-based; settings: Dd2
NFF [16] = format: ADME, cell-based; settings: Homo sapiens, 72 h
HEK293 = assay: Cytotoxicity against HEK293 cells after 48 hrs by resazurin dye based assay; format: ADME, cell-based; settings: Homo sapiens, HEK293, 48 h

Chain of Histone deacetylase 1 (Q13547 whole entry): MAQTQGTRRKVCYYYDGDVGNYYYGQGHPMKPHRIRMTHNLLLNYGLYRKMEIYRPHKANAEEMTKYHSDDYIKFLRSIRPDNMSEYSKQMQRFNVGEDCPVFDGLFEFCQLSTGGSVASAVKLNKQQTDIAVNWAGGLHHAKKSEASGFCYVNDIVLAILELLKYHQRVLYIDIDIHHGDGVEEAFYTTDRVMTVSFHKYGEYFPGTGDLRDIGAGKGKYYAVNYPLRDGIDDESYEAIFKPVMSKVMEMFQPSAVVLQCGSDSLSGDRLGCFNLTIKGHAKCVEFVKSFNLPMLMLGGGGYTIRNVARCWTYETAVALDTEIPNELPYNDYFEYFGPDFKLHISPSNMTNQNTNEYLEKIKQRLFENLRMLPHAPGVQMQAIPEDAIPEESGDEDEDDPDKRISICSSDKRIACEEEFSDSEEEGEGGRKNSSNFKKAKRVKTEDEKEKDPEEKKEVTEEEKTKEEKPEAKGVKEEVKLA

## CCCCNC(=O)CN(Cc1ccc(C(=O)NO)cc1)C(=O)c1ccc(N(C)C)cc1
Histone deacetylase 1
  IC50: 40 nM
[1]
  IC50: 35 nM

## Cc1ccc(C(=O)N(CC(=O)NC2CCCCC2)Cc2ccc(C(=O)NO)cc2)cc1C
Histone deacetylase 1
  IC50: 304 nM

## CC(/C=C/C(=O)NO)=C\[C@@H](C)C(=O)c1ccc(N(C)C)cc1 [TRICHOSTATIN]
Plasmodium falciparum [2]
  IC50: 8 to 11 nM

## Cc1ccc(NC(=O)CN(Cc2ccc(C(=O)NO)cc2)C(=O)c2cccc3ccccc23)cc1
NFF [3]
  IC50: > 10000 nM
In vitro [4]
  selectivity ratio: 256 to 303
In vitro [5]
  selectivity ratio: 256 to 303
Plasmodium falciparum [6]
  IC50: 39 nM
Plasmodium falciparum [7]
  IC50: 33 nM

## CC[C@H](C)[C@H](NC(=O)[C@H]([C@@H](C)CC)N(C)C(C)=O)C(=O)N[C@H](C(=O)N[C@@H](CC(C)C)C(=O)[C@@]1(C)CO1)[C@@H](C)O [EPOXOMYCIN]
Plasmodium falciparum [8]
  IC50: 7 nM

## COc1ccc2nc3cc(Cl)ccc3c(Nc3cc(CN4CCCC4)c(O)c(CN4CCCC4)c3)c2n1 [PYRONARIDINE]
Plasmodium falciparum [9]
  IC50: 29 nM
Plasmodium falciparum [10]
  IC50: 1710 nM

## O=C1C(O)=C([C@H]2CC[C@H](c3ccc(Cl)cc3)CC2)C(=O)c2ccccc21 [ATOVAQUONE]
[11]
  IC50: > 500 nM
Plasmodium berghei
  IC50: 0.014 nM
[12]
  selectivity ratio: > 35000

## Cc1ccc(NC(=O)CN(Cc2ccc(C(=O)NO)cc2)C(=O)c2cc(C)cc(C)c2)cc1
[11]
  IC50: 21400 nM
Plasmodium falciparum [9]
  IC50: 7600 nM
Plasmodium falciparum [10]
  IC50: 7280 nM
Plasmodium falciparum [8]
  IC50: 10100 nM
Plasmodium berghei
  IC50: 5550 nM
NFF [3]
  IC50: > 10000 nM
Plasmodium falciparum [7]
  IC50: 27 nM

## Cc1ccc(C(=O)N(CC(=O)NC(C)(C)C)Cc2ccc(C(=O)NO)cc2)cc1C
Histone deacetylase 1
  IC50: 428 nM
[1]
  IC50: 57 nM
Plasmodium falciparum [13]
  Activity: 92%

## Cc1ccc(NC(=O)CN(Cc2ccc(C(=O)NO)cc2)C(=O)c2ccc(N(C)C)cc2)cc1
Histone deacetylase 1
  IC50: 80 nM

## O=C(CN(Cc1ccc(C(=O)NO)cc1)C(=O)c1cccc2ccccc12)NC1CCCCC1
Histone deacetylase 1
  IC50: 552 nM

## O=C(/C=C/c1cccc(S(=O)(=O)Nc2ccccc2)c1)NO [BELINOSTAT]
Plasmodium falciparum [14]
  IC50: 60 to 130 nM
Plasmodium falciparum [15]
  IC50: 60 to 130 nM
NFF [16]
  IC50: 1420 to 2370 nM
HEK293
  IC50: 1420 to 2370 nM

## CC(C)c1ccc(C(=O)N(CC(=O)NC2CCCCC2)Cc2ccc(C(=O)NO)cc2)cc1
Histone deacetylase 1
  IC50: 86 nM
[1]
  IC50: 64 nM

## CN(C)c1ccc2nc3ccc(N(C)C)cc3[s+]c2c1 [METHYLENE BLUE ANHYDROUS]
Plasmodium falciparum [8]
  IC50: 480 nM

## Cc1[nH]c2ccccc2c1CCNCc1ccc(/C=C/C(=O)NO)cc1 [PANOBINOSTAT]
Plasmodium falciparum [14]
  IC50: 10 to 30 nM
Plasmodium falciparum [15]
  IC50: 10 to 30 nM
NFF [16]
  IC50: 70 to 180 nM
HEK293
  IC50: 70 to 180 nM
